Results on six compounds are retold here after PubChem BioAssay (NCI).

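48-hour exposure; five concentrations; linearly interpolated endpoints. GI50 is the concentration that inhibits growth by half. The concentration for full growth arrest is given as TGI.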 Where only a bound is given, the exact number is not on record here.

Among the test systems are HCT-15 colon; K-562 leukemia; NCI/ADR-RES ovarian; OVCAR-8 ovarian; RPMI-8226 leukemia; RXF 393 renal; SK-MEL-2 melanoma; SW-620 colon; T-47D breast; UACC-257 melanoma.
Common to all, as to assay: DTP human tumour cell line panel, 48 h

Broadly, the GI50 is the concentration at which growth is held to half of that of the control. As usually defined, the TGI is the concentration giving total growth inhibition. Lower therefore signals more potent growth arrest. As for `COC(=O)[C@@H](C)C[C@H](Cc1cn(C)c2ccccc12)NC(=O)c1csc([C@@H](C[C@H](C(C)C)N(C)C(=O)[C@@H](NC(=O)[C@H]2CCCCN2C)C(C)C)OC(C)=O)n1`, the GI50 is 66.5 nM with HCT-15 colon; 5.47 nM in the assay on K-562 leukemia; 417 nM in the assay with NCI/ADR-RES ovarian; 30.2 nM with OVCAR-8 ovarian; 7.76 nM with RPMI-8226 leukemia; 23 nM in the assay with RXF 393 renal. Further, the 50% growth inhibitory concentration (GI50) with SK-MEL-2 melanoma was 11.5 nM; with SW-620 colon, 8.3 nM; in the assay on T-47D breast, > 16.7 µM; in the assay on UACC-257 melanoma, > 16.7 µM. The concentration for total growth inhibition (TGI) with HCT-15 colon, in the assay with K-562 leukemia, with NCI/ADR-RES ovarian, in the assay with OVCAR-8 ovarian, in the assay with RPMI-8226 leukemia and in the assay on RXF 393 renal was > 16.7 µM in each case. For the same compound, the TGI in the assay with SK-MEL-2 melanoma, with SW-620 colon, with T-47D breast and in the assay on UACC-257 melanoma was > 16.7 µM throughout.

As for `Nc1c(C(=O)c2ccc(-c3cccnc3)cc2)cnn1-c1ccc(F)cc1`, the GI50 in the assay on HCT-15 colon is > 20200 nM; with K-562 leukemia, > 25000 nM; with NCI/ADR-RES ovarian, > 19500 nM; in the assay with OVCAR-8 ovarian, > 17500 nM; in the assay on RPMI-8226 leukemia, > 17500 nM; in the assay with RXF 393 renal, 14500 nM. The GI50 in the assay with SK-MEL-2 melanoma is > 25000 nM; with SW-620 colon, > 22400 nM; in the assay on T-47D breast, 9.72 µM; with UACC-257 melanoma it was > 22.4 µM. Also, the concentration for total growth inhibition (TGI) in the assay with HCT-15 colon, in the assay on K-562 leukemia, with NCI/ADR-RES ovarian, in the assay on OVCAR-8 ovarian, with RPMI-8226 leukemia and in the assay on RXF 393 renal was > 25 µM each time. Further, the total growth inhibition concentration (TGI) was > 25 µM in the assay with SK-MEL-2 melanoma, > 25 µM in the assay on SW-620 colon, > 21.7 µM with T-47D breast and > 25 µM in the assay on UACC-257 melanoma.

In the case of `C[C@]12CC[C@@H]3c4cc(OC(F)F)c(O)cc4CC[C@H]3[C@@H]1CC[C@@H]2OS(N)(=O)=O`, the GI50 in the assay on HCT-15 colon was 458 nM; in the assay with K-562 leukemia it was 380 nM; in the assay with NCI/ADR-RES ovarian, 484 nM; in the assay with OVCAR-8 ovarian, 1550 nM; in the assay with RPMI-8226 leukemia it was 568 nM; with RXF 393 renal, 315 nM. The GI50 with SK-MEL-2 melanoma was 880 nM; with SW-620 colon, 417 nM; in the assay on T-47D breast, 1.02 µM; in the assay on UACC-257 melanoma, 16.7 µM. The total growth inhibition concentration (TGI) with HCT-15 colon was 26.8 µM; with K-562 leukemia, > 100 µM; in the assay on NCI/ADR-RES ovarian, 25.3 µM; with OVCAR-8 ovarian, 68.1 µM; with RPMI-8226 leukemia, 46.9 µM; in the assay on RXF 393 renal, 6.42 µM. The concentration for total growth inhibition (TGI) is 55.8 µM in the assay with SK-MEL-2 melanoma, > 100 µM in the assay with SW-620 colon, 50.7 µM in the assay with T-47D breast and 79.6 µM in the assay with UACC-257 melanoma.

Turning to `C=C(C)C1CC/C(C)=C/CCC2(C)OC2CC/C(CO)=C\C1O` (stereo not given), the TGI in the assay on HCT-15 colon, with K-562 leukemia, in the assay with NCI/ADR-RES ovarian, in the assay on OVCAR-8 ovarian, in the assay on RPMI-8226 leukemia and in the assay on RXF 393 renal was > 100 µM each time. Moreover, the concentration for total growth inhibition (TGI) with SK-MEL-2 melanoma, in the assay on SW-620 colon, with T-47D breast and with UACC-257 melanoma was > 100 µM in each case.

Regarding `Cc1ccc(Cl)cc1Nc1nc(C(F)(F)F)ccc1C(=O)N/N=C/c1cccnc1`, the GI50 in the assay with HCT-15 colon was 693 nM; with K-562 leukemia, 1710 nM; in the assay with NCI/ADR-RES ovarian, 3210 nM; in the assay on OVCAR-8 ovarian, 3050 nM; in the assay on RPMI-8226 leukemia it was 2940 nM; in the assay with RXF 393 renal, 1360 nM. The GI50 in the assay with SK-MEL-2 melanoma was 3740 nM; in the assay with SW-620 colon, 3320 nM; in the assay with T-47D breast it was 3.16 µM; in the assay on UACC-257 melanoma it was 3.15 µM. Also, the concentration for total growth inhibition (TGI) in the assay with HCT-15 colon was 13.7 µM; in the assay on K-562 leukemia it was > 39 µM; in the assay with NCI/ADR-RES ovarian it was 20.3 µM; with OVCAR-8 ovarian, 15.1 µM; in the assay on RPMI-8226 leukemia it was > 32.5 µM; with RXF 393 renal, 7.5 µM. Moreover, the TGI with SK-MEL-2 melanoma is 15.3 µM; in the assay with SW-620 colon, 14.9 µM; in the assay on T-47D breast, 20.8 µM; in the assay with UACC-257 melanoma it was 10.1 µM.

As to `O=C(O)/C=C/C(=O)N1Cc2cc3ccccc3nc2C1`, the concentration for total growth inhibition (TGI) in the assay on HCT-15 colon, with K-562 leukemia, with NCI/ADR-RES ovarian, in the assay on OVCAR-8 ovarian, in the assay on RPMI-8226 leukemia and in the assay with RXF 393 renal was > 100 µM each time. The TGI with SK-MEL-2 melanoma, with SW-620 colon, in the assay on T-47D breast and with UACC-257 melanoma was > 100 µM in each case.
